The target in the first assay is T1, human GATA2 (Homo sapiens, UniProt P23769).
T1 construct: expressed in transfected cells; host or cells: IHH
T1 sequence (P23769 1-480): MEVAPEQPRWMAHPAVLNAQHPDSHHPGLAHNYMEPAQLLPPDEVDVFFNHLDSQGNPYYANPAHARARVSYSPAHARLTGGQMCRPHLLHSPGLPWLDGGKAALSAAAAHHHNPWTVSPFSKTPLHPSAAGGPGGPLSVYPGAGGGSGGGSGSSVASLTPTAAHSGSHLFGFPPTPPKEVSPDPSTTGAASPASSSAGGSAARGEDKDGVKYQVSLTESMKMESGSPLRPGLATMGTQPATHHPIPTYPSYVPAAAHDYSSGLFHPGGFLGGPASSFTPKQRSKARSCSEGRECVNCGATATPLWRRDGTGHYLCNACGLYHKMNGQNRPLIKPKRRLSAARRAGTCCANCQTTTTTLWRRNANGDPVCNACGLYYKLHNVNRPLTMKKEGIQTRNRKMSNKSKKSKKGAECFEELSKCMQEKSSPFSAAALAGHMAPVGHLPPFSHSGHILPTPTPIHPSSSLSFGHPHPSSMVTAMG
Description: GATA2-dependent reporter assay in IHH cells. It counts as cell-based. Conditions: GATA-Luc reporter, 48 h. The procedure: K7174 is a known GATA2 inhibitor. The IHH cells were transiently transfected with empty vector (for the NT) or human GATA2-expressing plasmid as well as pRL-TK (internal control) and GATA-Luc reporter plasmids. Cells were exposed to DMSO vehicle or compounds for 48 h. Experiments were in triplicate.
A general note: In a reporter assay the amount or activity of a reporter protein is the signal.
Turning to `O=C(/C=C(/C=C/c1cccc(C(F)(F)F)c1)c1ccccc1)N1CCC(O)(c2ccccc2)CC1` [Compound 872], the “GATA2 inhibition in GATA2-dependent reporter assay” value (“GATA2 inhibition” for short) is given as “GATA2 inhibitors”.

In the case of `COc1ccc(/C(=C\C(=O)N2CCC(O)(c3ccccc3)CC2)CCc2ccccc2)cc1` [Compound 871], the “GATA2 inhibition” value was “GATA2 inhibitors”.

As to `O=C(/C=C(/CCc1ccccc1)c1cccc(C(F)(F)F)c1)N1CCC(O)(c2ccccc2)CC1` [Compound 869], the “GATA2 inhibition” value is “GATA2 inhibitors”.

Turning to `COc1ccc(CC/C(=C/C(=O)N2CCC(O)(c3ccccc3)CC2)c2ccccc2)cc1` [Compound 858], the “GATA2 inhibition” value is “GATA2 inhibitors”.

For `O=C(/C=C(/CCc1cccc(F)c1)c1ccccc1)N1CCC(O)(c2ccccc2)CC1` [Compound 860], the “GATA2 inhibition” value was “GATA2 inhibitors”.

As for `c1coc(-c2nc(CCCc3c[nH]c4ccccc34)oc2-c2ccco2)c1` [Compound 831], the “GATA2 inhibition” value was “GATA2 inhibitors”.

For the molecule `COc1ccc(/C(=C\C(=O)N2CCC(O)(c3ccccc3)CC2)CCc2ccccc2)cc1OC` [Compound 883], the “GATA2 inhibition” value is reported as “GATA2 inhibitors”.

Turning to `COc1cccc(/C=C/c2nc(-c3ccccc3)c(-c3ccccc3)o2)c1` [Compound 684], the “GATA2 inhibition” value is “GATA2 inhibitors”.

`O=C1Nc2ccccc2C1CCc1nc(-c2cccc(F)c2)c(-c2cccc(F)c2)o1` (centres unmarked) [Compound 866]: the “GATA2 inhibition” value is given as “GATA2 inhibitors”.

Take `c1ccc(-c2nc(CCCc3c[nH]c4ccccc34)oc2-c2ccccc2)cc1` [Compound 632]: the “GATA2 inhibition” value is recorded as “GATA2 inhibitors”.

Turning to `O=C(/C=C(/CCc1ccccc1)c1ccccc1)N1CCC(O)(c2ccccc2)CC1` [Compound 859], the “GATA2 inhibition” value was “GATA2 inhibitors”.

As to `C(=C\c1cccs1)/c1nc(-c2ccccc2)c(-c2ccccc2)o1` [Compound 685], the “GATA2 inhibition” value is on record as “GATA2 inhibitors”.

`c1ccc(-c2nc(CCc3c[nH]c4ccccc34)oc2-c2ccccc2)cc1` [Compound 631]: the “GATA2 inhibition” value is “GATA2 inhibitors”.

`O=C(C/C(=C\c1ccccc1)c1ccccc1)N1CCC(O)(c2ccccc2)CC1` [Compound 880]: the “GATA2 inhibition” value is given as “GATA2 inhibitors”.

For the molecule `Cc1ccc(/C(=C\C(=O)N2CCC(O)(c3ccccc3)CC2)CCc2ccccc2)cc1` [Compound 870], the “GATA2 inhibition” value is on record as “GATA2 inhibitors”.

For `Fc1cccc(-c2[nH]c(Cc3c[nH]c4ccccc34)nc2-c2ccco2)c1` [Compound 839], the “GATA2 inhibition” value is on record as “GATA2 inhibitors”.

Consider `COc1cccc(-c2nc(Cc3c[nH]c4ccccc34)oc2-c2cccc(O)c2)c1` [Compound 719], for which the “GATA2 inhibition” value is “GATA2 inhibitors”.

For `Cc1ccc(/C(=C\C(=O)N2CCC(O)(c3ccccc3)CC2)CCc2cccc(F)c2)cc1` [Compound 882], the “GATA2 inhibition” value is listed as “GATA2 inhibitors”.

In the case of `O=C(/C=C(/CCc1cccc(C(F)(F)F)c1)c1ccccc1)N1CCC(O)(c2ccccc2)CC1` [Compound 868], the “GATA2 inhibition” value is “GATA2 inhibitors”.

Regarding `O=C(/C=C(/Cc1ccccc1)c1ccccc1)N1CCC(O)(c2ccccc2)CC1` [Compound 881], the “GATA2 inhibition” value is recorded as “GATA2 inhibitors”.

The next assay deals with T2, human STING (hSTING) (Homo sapiens, UniProt Q86WV6).
T2 construct: expressed in transfected cells; host or cells: 293T
T2 sequence (Q86WV6 whole entry H232R): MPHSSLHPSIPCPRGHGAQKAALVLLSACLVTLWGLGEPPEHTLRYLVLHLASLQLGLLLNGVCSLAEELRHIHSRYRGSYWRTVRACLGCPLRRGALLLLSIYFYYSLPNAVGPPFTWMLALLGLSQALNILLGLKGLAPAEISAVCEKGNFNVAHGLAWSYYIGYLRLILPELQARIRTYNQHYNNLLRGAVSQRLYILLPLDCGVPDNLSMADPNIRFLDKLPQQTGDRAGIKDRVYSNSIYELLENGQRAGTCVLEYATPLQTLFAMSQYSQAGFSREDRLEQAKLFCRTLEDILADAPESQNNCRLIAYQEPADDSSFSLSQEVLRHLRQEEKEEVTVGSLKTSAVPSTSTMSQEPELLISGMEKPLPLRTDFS
In words: hSTING ISRE-luc reporter assay in 293T cells. It counts as cell-based. Conditions: 24 hours. The procedure:
ISRE-luc (reporter), pRL-TK (internal control) and hSTING-expressing plasmids were transiently transfected into 293T cells. Cells were exposed to DMSO vehicle control or compounds for 24 hours. Experiments were done in triplicate.
As to `FC(F)(F)c1cc(CCc2nc(-c3ccccc3)c(-c3ccccc3)o2)cc(C(F)(F)F)c1` [Compound 689], the “activation of hSTING in ISRE-luc reporter assay” value is reported as “activate hSTING”.

As to `Fc1ccc(-c2nc(CCCc3c[nH]c4ccccc34)oc2-c2ccc(F)cc2)cc1` [Compound 671], the “activation of hSTING in ISRE-luc reporter assay” value is given as “activate hSTING”.

Regarding `COc1ccc(-c2nc(Cc3c[nH]c4ccccc34)oc2-c2ccc(OC)cc2)cc1` [Compound 660], the “activation of hSTING in ISRE-luc reporter assay” value was “activate hSTING”.

Regarding `c1coc(-c2nc(CCCc3c[nH]c4ccccc34)oc2-c2ccco2)c1` [Compound 831], the “activation of hSTING in ISRE-luc reporter assay” value is “activate hSTING”.

Consider `Clc1cccc(-c2nc(CCCc3c[nH]c4ccccc34)oc2-c2cccc(Cl)c2)c1` [Compound 762], for which the “activation of hSTING in ISRE-luc reporter assay” value was “activate human STING (hSTING)”.

As to `FC(F)(F)c1ccc(-c2nc(CCc3c[nH]c4ccccc34)oc2-c2ccc(C(F)(F)F)cc2)cc1` [Compound 918], the “activation of hSTING in ISRE-luc reporter assay” value is on record as “activate hSTING”.

For `c1coc(-c2nc(CCc3c[nH]c4ccccc34)oc2-c2ccco2)c1` [Compound 919], the “activation of hSTING in ISRE-luc reporter assay” value is given as “activate hSTING”.

As for `COc1ccccc1-c1nc(CCc2c[nH]c3ccccc23)oc1-c1ccccc1OC` [Compound 917], the “activation of hSTING in ISRE-luc reporter assay” value is “activate hSTING”.

Turning to `FC(F)(F)c1ccccc1-c1nc(CCCc2c[nH]c3ccccc23)oc1-c1ccccc1C(F)(F)F` [Compound 677], the “activation of hSTING in ISRE-luc reporter assay” value was “activate human STING (hSTING)”.

Consider `COc1ccccc1-c1nc(CCCc2c[nH]c3ccccc23)oc1-c1ccccc1OC` [Compound 916], for which the “activation of hSTING in ISRE-luc reporter assay” value is “activate hSTING”.

With `FC(F)(F)c1ccccc1-c1nc(CCc2c[nH]c3ccccc23)oc1-c1ccccc1C(F)(F)F` [Compound 920], the “activation of hSTING in ISRE-luc reporter assay” value is given as “activate hSTING”.

Another assay relates to hSTING and/or mSTING. In words: hSTING- or mSTING-dependent ISRE-luc reporter assay in 293T cells. Type of assay: cell-based. The conditions noted are these: 24 hours. Here is the method: ISRE-luc (reporter), pRL-TK (internal control) and hSTING- or mSTING-expressing plasmids were transiently transfected into 293T cells. Cells were exposed to DMSO vehicle control or compounds for 24 hours. Experiments were done in triplicate.
As for `N#Cc1ccc(CN2CCN(Cc3nc(-c4ccccc4)c(-c4ccccc4)o3)CC2)cc1` [Compound 1361], the “activation of hSTING and/or mSTING in ISRE-luc reporter assay” value (from here on “activation of hSTING and/or mSTING”) is “activate hSTING and/or mSTING”.

For the molecule `O=C(c1ccccc1)N1CCN(Cc2nc(-c3cccc(F)c3)c(-c3cccc(F)c3)[nH]2)CC1` [Compound 1121], the “activation of hSTING and/or mSTING” value is “activate hSTING and/or mSTING”.

Consider `COc1cccc(N2CCN(Cc3nc(-c4cccc(F)c4)c(-c4cccc(F)c4)[nH]3)CC2)c1` [Compound 1141], for which the “activation of hSTING and/or mSTING” value is “activate hSTING and/or mSTING”.

The assay is the same for the next values; noted with them: 24 hours, 10 μM.
As for `O=C(c1ccc(F)cc1)N1CCN(Cc2nc(-c3cccc(F)c3)c(-c3cccc(F)c3)[nH]2)CC1` [Compound 1179], the “activation of hSTING and/or mSTING” value is recorded as “activate hSTING and/or mSTING”.

As for `O=C(c1ccccc1F)N1CCN(Cc2nc(-c3cccc(F)c3)c(-c3cccc(F)c3)[nH]2)CC1` [Compound 1178], the “activation of hSTING and/or mSTING” value is on record as “activate hSTING and/or mSTING”.

Turning to `Fc1cccc(-c2nc(CN3CCN(Cc4ccccc4)CC3)[nH]c2-c2cccc(F)c2)c1` [Compound 1175], the “activation of hSTING and/or mSTING” value is “activate hSTING and/or mSTING”.

Still in this assay, the particulars now being: 24 hours, 20 μM.
Regarding `O=C(c1cccc(F)c1)N1CCN(Cc2nc(-c3ccccc3)c(-c3ccccc3)o2)CC1` [Compound 1180], the “activation of hSTING and/or mSTING” value is “activate hSTING and/or mSTING”.

Consider `Oc1ccccc1N1CCN(Cc2nc(-c3ccccc3)c(-c3ccccc3)o2)CC1` [Compound 1184], for which the “activation of hSTING and/or mSTING” value was “activate hSTING and/or mSTING”.

Another assay deals with T3, ETV1 (Homo sapiens, UniProt P50549).
T3 construct: expressed in transfected cells; host or cells: HEK293
T3 sequence (P50549 1-477): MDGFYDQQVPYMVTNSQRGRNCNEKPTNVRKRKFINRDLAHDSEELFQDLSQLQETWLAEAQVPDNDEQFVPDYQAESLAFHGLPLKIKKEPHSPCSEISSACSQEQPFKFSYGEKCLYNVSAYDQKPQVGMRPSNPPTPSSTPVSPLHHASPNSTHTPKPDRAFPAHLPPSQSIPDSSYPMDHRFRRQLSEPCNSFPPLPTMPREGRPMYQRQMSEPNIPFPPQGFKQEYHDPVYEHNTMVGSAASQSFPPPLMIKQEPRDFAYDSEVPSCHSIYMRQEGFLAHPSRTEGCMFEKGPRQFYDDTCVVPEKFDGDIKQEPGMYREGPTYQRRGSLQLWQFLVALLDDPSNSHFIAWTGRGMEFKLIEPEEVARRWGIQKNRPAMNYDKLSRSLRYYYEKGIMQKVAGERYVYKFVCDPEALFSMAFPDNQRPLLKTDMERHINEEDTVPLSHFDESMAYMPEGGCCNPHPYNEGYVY
Description: ETV1-dependent reporter assay in HEK293 cells. Type of assay: cell-based. The conditions noted are these: 48 hours. The procedure: HEK293 cells were transiently transfected with empty vector (for the NT) or ERG-expressing plasmid as well as pRL-TK (internal control) and PUx3-Luc reporter. Cells were then exposed to DMSO vehicle or compounds at designated doses for 48 hours. Experiments were done in triplicate.
Experiments were done as described above in FIG. 1.1a) except that ERG plasmid was replaced by ETV1 plasmid.
With `c1ccc(-c2nc(Cc3c[nH]c4ccccc34)oc2-c2ccccc2)cc1` [Compound 708], the “ETV1 inhibition in ETV1-dependent reporter assay” value (“ETV1 inhibition” for short) is reported as “ETV1 inhibitors”.

`Fc1ccccc1-c1nc(Cc2c[nH]c3ccccc23)oc1-c1ccccc1F` [Compound 655]: the “ETV1 inhibition” value was “ETV1 inhibitors”.

Take `Cc1ccc(-c2nc(Cc3c[nH]c4ccccc34)oc2-c2ccc(C)cc2)cc1` [Compound 654]: the “ETV1 inhibition” value is “ETV1 inhibitors”.

With `Fc1ccc(-c2nc(Cc3c[nH]c4ccccc34)oc2-c2ccc(F)cc2)cc1` [Compound 652], the “ETV1 inhibition” value was “ETV1 inhibitors”.

Consider `Fc1ccc2[nH]cc(Cc3nc(-c4ccccc4)c(-c4ccccc4)o3)c2c1` [Compound 636], for which the “ETV1 inhibition” value is “ETV1 inhibitors”.

(Values after patent publication US10844051B2, “Substituted oxazoles for the treatment of cancer” (THE ROYAL INSTITUTION FOR THE ADCANCEMENT OF …, priority 2015, dated 2020).)
